# Test results from US20200179335A1, “TREATMENT OF DISEASES ASSOCIATED WITH A DYSREGULATION OF THE mTOR PATHWAY” (BIOCODEX, priority 2017, published 2020).
# What was measured:
# [1] = system: Akt (P13K-Akt, upstream modulator of the mTOR pathway); assay: Western blot of Akt phosphorylation in hippocampus of pentylenetetrazol-treated rats; type: in vivo, rat; conditions: for ratio of phosphorylated Akt related to total Akt: hippocampus of adult male Sprague-Dawley rats, pretreatment i.p. (stiripentol 300 mg/kg or wortmannin 2.4 mg/kg) 30 min before pentylenetetrazol 80 mg/kg s.c., sacrifice 30 min after PTZ, tween-PTZ control 1.81
# Experimental: (§1) The mTOR pathway has been studied at two levels (i) an upstream level of regulation with the P13K-Akt, a modulator of the mTOR pathway and (ii) a downstream level with the ribosomal protein S6, the substrate of the S6 kinase, a direct downstream effector of the mTOR pathway. Adult male Sprague-Dawley rats (Janvier, 220-250 g, n=24, 7 weeks old) were used in this study. They were housed 2 per cage (Techniplast ref. 1291), and maintained in a 12 h light/dark cycle (light ON at 7 AM). Food and water were provided ad libitum. The experiments were conducted in accordance with the European Recommendations (directive 2010/63/EU) for the use and care of laboratory animals. The experimental protocol has been approved by the ethics committee. Pentylenetetrazol (batch MKB[…], SIGMA), 80 mg/kg in 0.9% NaCl was administered subcutaneously in an injection volume of 5 mL/kg. Wortmannin (Sigma), 2.4 mg/kg in DMSO 10% v/v in 0.9% NaCl or Stiripentol (Biocodex), 300 mg/kg in tween80 5% v/v, were injected intraperitoneally (10 mL/kg) 30 min before pentylenetetrazol administration. […] The protein concentration of each sample was determined by a BCA protein assay. […] Signals were detected by enzyme chemiluminescence (Vilber Lourmat Fusion FX5 system) and quantitatively analyzed with the Bio-1 D software (Vilber Lourmat, France). […] Each membrane was also stripped (RestoreTM western blot stripping buffer, Thermoscientific) and reprobed to detect beta-actin protein levels, a control for the total quantity of protein deposited. […] The difference between groups was assessed by a two-way ANOVA followed by a Holm-Sidak multiple comparison (factor pretreatment=tween or STP, factor treatment=NaCl or PTZ). The effect of wortmaninn was assessed by a t-test comparison between tween-pentylenetetrazol (n=5) versus wortmannin-pentylenetetrazol groups (n=3).
# [2] = system: ribosomal protein S6 (downstream effector of the mTOR pathway); assay: Western blot of S6 protein phosphorylation in hippocampus of pentylenetetrazol-treated rats; type: in vivo, rat; conditions: for ratio of phosphorylated S6 related to total S6 protein: hippocampus of adult male Sprague-Dawley rats, pretreatment i.p. (stiripentol 300 mg/kg or wortmannin 2.4 mg/kg) 30 min before pentylenetetrazol 80 mg/kg s.c., sacrifice 30 min after PTZ, Veh-PTZ control 0.79
# Experimental: as §1
# [3] = hippocampus, rats pretreated i.p. 30 min before pentylenetetrazol 80 mg/kg s.c.
Compound,ratio of phosphorylated Akt related to total Akt [1],"band of phosphorylated Akt in western blot (FIG. 1) [1, 3]",ratio of phosphorylated S6 related to total S6 protein [2],"band of phosphorylated S6 protein in western blot (FIG. 3) [2, 3]"
"CC(C)(C)C(O)/C=C/c1ccc2c(c1)OCO2 (racemic) [stiripentol, 1-penten-3-ol, 1-(1,3-benzodioxol)-4,4-dimethyl]",2.46,strong band,0.36,No band was visible
COC[C@H]1OC(=O)c2coc3c2[C@@]1(C)C1=C(C3=O)[C@@H]2CCC(=O)[C@@]2(C)C[C@H]1OC(C)=O [wortmannin],0.40,–,0.30,–
